# Source: US11504362B2, “Liquid dosage forms to treat cancer” (Exelixis, Inc., priority 2017, dated 2022)
# Several values for one entry are separate records, joined by “and”; a condition that tells them apart may be missing. Identical values can stand only once.
# Legend:
# [1] = Mass balance: excretion and recovery of 14C total radioactivity in urine and feces; assay type: in vivo, human
# Source text: Methodology: This was an open-label, single-dose, single-center, mass balance, Phase 1 study in healthy male volunteers. There were two study periods: a Screening Period, during which subjects underwent assessments to determine their eligibility for the study, and an On-study Period, which started on Day-1 (‘check-in’ day) when the subject was admitted to the Celerion clinic. […] However, subjects who were discharged from the clinic before Day 28 were required to return to the clinic for all remaining scheduled pharmacokinetic blood sampling and the Day 28 safety assessments. Subjects not meeting radioactivity release criteria by Day 28 could be asked to remain confined in the clinic or continue collection of urine and feces at home (returning samples to the clinic daily) for up to an additional 7 days (through to Day 35). Due to the fact that by Day 35 subjects had still not met release criteria, subjects were given the option of withdrawing from the study or completing the additional 14-day collection period (either in the clinic or as a daily visitor) with urine and feces collections and daily adverse event (AE) inquiries. All urine and fecal collections for all subjects stopped following the conclusion of the Day 49 scheduled events regardless of percentage of total radioactive dose recovered.
# A single dose oral solution was administered at Hour 0 on Day 1 by the clinic staff. The dose was given via the scintillation vial. Following dosing, the scintillation vial was rinsed 3 times with room temperature distilled water, and the rinsate was administered to the subject. Residual radioactivity was determined for each dosing vial. The total volume of liquid administered including radiolabelled study drug, rinses, and water given for dosing (in addition to the rinses) was the same for each subject.
# Mass balance was calculated as the percent of total administered radioactivity recovered in urine and feces. For the purpose of calculating mass balance, the amount of administered radioactivity was defined as the total radioactivity in the dosing solution minus any radioactivity lost due to emesis (if any occurred), adsorption to the dosing vial, etc.
# Subjects were asked to empty their bladders within approximately 60 minutes prior to dosing for the pre-dose sample. Samples were collected during the 0 to 8 hours and 8 to 24 hours post-dose intervals, and then continuing in 24-hour intervals through Day 49. For subjects who met early release criteria, sampling could cease upon discharge from the clinic. […] One subject was released from the clinic following the 864 hour interval (Day 37) collection and no longer provided excreta samples.
# Subjects were asked to bring a pre-dose stool sample with them at check-in (produced within 24 hours of check-in). Stools produced between subject check-in and dosing were collected for the pre-dose sample as well, and the sample produced nearest to dosing was used as the pre-dose sample. Post-dose stools were collected in 24-hour intervals through the morning of Day 49. For subjects who met early release criteria, sampling could cease upon discharge from the clinic. […] One subject was released from the clinic following the 864 hour interval (Day 37) collection and no longer provided excreta samples.
# For each subject, multiple fecal specimens from each 24-hour interval were combined into a pre-weighed wide mouth polypropylene/polyethylene container and appropriately labeled. For each interval, the fecal sample was weighed to determine the final fecal weight. Each sample was homogenized into a slurry (approximately 20% suspension in water) from which the necessary aliquots were taken.
# Mass balance was calculated as the percent of total administered radioactivity recovered in urine and feces. […]
# [2] = Percentage of 14C radioactivity associated with erythrocytes in whole blood (ETR); assay type: in vivo, human; settings: single 175 mg oral dose
# Experimental: To determine the percentage of radioactivity associated with erythrocytes in whole blood over time (ETR; calculated only for time points that whole blood is collected), the following was calculated:
# The amount of ^14C radioactivity in plasma versus whole blood, adjusted for the hematocrit, at the specific time points of comparison (ETR=Xe/Xb=1−[Cp*(1−Hct)/Cb], where Xe and Xb stands for amount of radioactivity in erythrocyte or whole blood, respectively. Hematocrit values for Days-1, 2, and 4 were averaged for use in this calculation.
# Blood samples (4 mL) for whole blood analysis of total radioactivity were collected within 15 minutes pre-dose and at 1, 2, 4, 8, 14, 24, and 72 hours post-dose. […] Samples collected were used to determine the percentage of radioactivity associated with erythrocytes in whole blood over time (calculated only for time points that whole blood was collected).
# To determine the percentage of radioactivity associated with erythrocytes in whole blood over time (calculated only for time points where whole blood was collected), the following was calculated: the amount of radioactivity in plasma versus whole blood, adjusted for the hematocrit, at the specific time points of comparison (ETR=Xe/Xb=1−[Cp*(1-Hct)/Cb], where Cp stands for amount of radioactivity in plasma and Cb stands for the amount of radioactivity in blood and Hct stands for hematocrit value. Hematocrit values for Days-1, 2, and 4 were averaged for use in this calculation.
# [3] = clinical; settings: human, in vivo
# Experimental: Samples for 2 subjects were used for the investigation study. Therefore, only 6 subjects' PK profiles were determined using a radio-quantitation method.
# [4] = rodent and non-rodent models; cited from earlier work
# [5] = test system: RET; settings: administration to mice; Yakes, et al. 2011; cited from earlier work
# [6] = test system: tumor models (human medullary thyroid cancer, human breast cancer, and rat glioma); settings: cited from earlier work
# [7] = single 175 mg oral dose, through 48 days, mean ± SD (% CV), n = 8
smiles,measurement,setting,value
"COc1cc2nccc(Oc3ccc(NC(=O)C4(C(=O)Nc5ccc(F)cc5)CC4)cc3)c2cc1OC [XL184, N-(4-{[6,7-bis(methyloxy)quinolin-4-yl]oxy}phenyl)-N′-(4-fluorophenyl)cyclopropane-1,1-dicarboxamide]",Urine cumulative excretion of 14C total radioactivity,"[1]; Day 1 (24 hrs), individual subjects",2.32% and 4.30% and 3.22% and 7.81% and 3.81% and 3.89% and 4.78% and 3.38%
same,Urine cumulative excretion of 14C total radioactivity,"[1]; Day 1 (24 hrs), mean",4.19%
same,Urine cumulative excretion of 14C total radioactivity,"[1]; Day 2 (48 hrs), individual subjects",4.70% and 8.75% and 6.39% and 14.86% and 7.68% and 8.34% and 9.68% and 7.07%
same,Urine cumulative excretion of 14C total radioactivity,"[1]; Day 2 (48 hrs), mean",8.43%
same,Urine cumulative excretion of 14C total radioactivity,"[1]; Day 3 (72 hrs), individual subjects",7.26% and 13.09% and 9.22% and 20.34% and 11.00% and 12.23% and 13.67% and 9.75%
same,Urine cumulative excretion of 14C total radioactivity,"[1]; Day 3 (72 hrs), mean",12.07%
same,Urine cumulative excretion of 14C total radioactivity,"[1]; Day 4 (96 hrs), individual subjects",9.65% and 16.19% and 11.53% and 24.39% and 13.47% and 15.11% and 16.57% and 12.11%
same,Urine cumulative excretion of 14C total radioactivity,"[1]; Day 4 (96 hrs), mean",14.88%
same,Urine cumulative excretion of 14C total radioactivity,"[1]; Day 5 (120 hrs), individual subjects",11.74% and 18.60% and 13.44% and 27.04% and 15.59% and 17.46% and 18.91% and 13.86%
same,Urine cumulative excretion of 14C total radioactivity,"[1]; Day 5 (120 hrs), mean",17.08%
same,Urine cumulative excretion of 14C total radioactivity,"[1]; Day 6 ([…]), mean",18.72%
same,Urine cumulative excretion of 14C total radioactivity,"[1]; Day 7 ([…]), mean",20.04%
same,Urine cumulative excretion of 14C total radioactivity,"[1]; Day 8 (192 hrs), individual subjects",16.27% and 23.34% and 16.60% and 31.32% and 19.36% and 21.56% and 23.11% and 18.17%
same,Urine cumulative excretion of 14C total radioactivity,"[1]; Day 8 (192 hrs), mean",21.22%
same,Urine cumulative excretion of 14C total radioactivity,"[1]; Day 9 (216 hrs), individual subjects",17.35% and 24.24% and 17.22% and 32.02% and 20.33% and 22.44% and 23.99% and 19.02%
same,Urine cumulative excretion of 14C total radioactivity,"[1]; Day 9 (216 hrs), mean",22.08%
same,Urine cumulative excretion of 14C total radioactivity,"[1]; Day 10 (240 hrs), individual subjects",18.26% and 25.17% and 17.67% and 32.59% and 21.12% and 23.24% and 24.71% and 19.68%
same,Urine cumulative excretion of 14C total radioactivity,"[1]; Day 10 (240 hrs), mean",22.81%
same,Urine cumulative excretion of 14C total radioactivity,"[1]; Day 11 ([…]), mean",23.42%
same,Cumulative recovery of total radioactivity in feces,[1]; [7],53.79% of Dose
same,Cumulative recovery of total radioactivity in urine,[1]; [7],27.29% of Dose
same,"Cumulative recovery of total radioactivity, total (urine and feces)","[1]; single 175 mg oral dose, within 48 days, mean ± SD (% CV), n = 8",81.09% of Dose
same,Percentage of 14C Radioactivity Associated with Erythrocytes in Whole Blood (ETR),"[2]; 1.00 h, Max (N=8)",14%
same,Percentage of 14C Radioactivity Associated with Erythrocytes in Whole Blood (ETR),"[2]; 1.00 h, Mean (N=8)",7.08%
same,Percentage of 14C Radioactivity Associated with Erythrocytes in Whole Blood (ETR),"[2]; 1.00 h, Median (N=8)",8.0%
same,Percentage of 14C Radioactivity Associated with Erythrocytes in Whole Blood (ETR),"[2]; 1.00 h, Min (N=8)",−3.4%
same,Percentage of 14C Radioactivity Associated with Erythrocytes in Whole Blood (ETR),"[2]; 1.00 h, individual subjects",6.87% and 14.1% (2×) and −3.37% and 9.27% and 3.64% and 9.17% and 2.89%
same,Percentage of 14C Radioactivity Associated with Erythrocytes in Whole Blood (ETR),"[2]; 2.00 h, GM, geometric mean (N=8)",7.30%
same,Percentage of 14C Radioactivity Associated with Erythrocytes in Whole Blood (ETR),"[2]; 2.00 h, Max (N=8)",14%
same,Percentage of 14C Radioactivity Associated with Erythrocytes in Whole Blood (ETR),"[2]; 2.00 h, Mean (N=8)",7.85%
same,Percentage of 14C Radioactivity Associated with Erythrocytes in Whole Blood (ETR),"[2]; 2.00 h, Median (N=8)",6.7%
same,Percentage of 14C Radioactivity Associated with Erythrocytes in Whole Blood (ETR),"[2]; 2.00 h, Min (N=8)",4.1%
same,Percentage of 14C Radioactivity Associated with Erythrocytes in Whole Blood (ETR),"[2]; 2.00 h, individual subjects",6.90% and 13.7% and 6.40% and 4.14% and 5.07% and 5.90% and 10.3% and 10.5%
same,Percentage of 14C Radioactivity Associated with Erythrocytes in Whole Blood (ETR),"[2]; 4.00 h, GM, geometric mean (N=8)",5.96%
same,Percentage of 14C Radioactivity Associated with Erythrocytes in Whole Blood (ETR),"[2]; 4.00 h, Max (N=8)",9.0%
same,Percentage of 14C Radioactivity Associated with Erythrocytes in Whole Blood (ETR),"[2]; 4.00 h, Mean (N=8)",6.40%
same,Percentage of 14C Radioactivity Associated with Erythrocytes in Whole Blood (ETR),"[2]; 4.00 h, Median (N=8)",6.5%
same,Percentage of 14C Radioactivity Associated with Erythrocytes in Whole Blood (ETR),"[2]; 4.00 h, Min (N=8)",2.1%
same,Percentage of 14C Radioactivity Associated with Erythrocytes in Whole Blood (ETR),"[2]; 4.00 h, individual subjects",8.27% and 6.45% and 6.26% and 8.96% and 6.74% and 2.05% and 6.55% and 5.88%
same,Percentage of 14C Radioactivity Associated with Erythrocytes in Whole Blood (ETR),"[2]; 8.00 h, GM, geometric mean (N=8)",10.9%
same,Percentage of 14C Radioactivity Associated with Erythrocytes in Whole Blood (ETR),"[2]; 8.00 h, Max (N=8)",17%
same,Percentage of 14C Radioactivity Associated with Erythrocytes in Whole Blood (ETR),"[2]; 8.00 h, Mean (N=8)",12.2%
same,Percentage of 14C Radioactivity Associated with Erythrocytes in Whole Blood (ETR),"[2]; 8.00 h, Median (N=8)",13%
same,Percentage of 14C Radioactivity Associated with Erythrocytes in Whole Blood (ETR),"[2]; 8.00 h, Min (N=8)",3.4%
same,Percentage of 14C Radioactivity Associated with Erythrocytes in Whole Blood (ETR),"[2]; 8.00 h, individual subjects",12.8% and 17.1% and 13.6% and 17.2% and 12.0% and 3.37% and 15.4% and 6.19%
same,Percentage of 14C Radioactivity Associated with Erythrocytes in Whole Blood (ETR),"[2]; 14.00 h, GM, geometric mean (N=8)",11.7%
same,Percentage of 14C Radioactivity Associated with Erythrocytes in Whole Blood (ETR),"[2]; 14.00 h, Max (N=8)",17%
same,Percentage of 14C Radioactivity Associated with Erythrocytes in Whole Blood (ETR),"[2]; 14.00 h, Mean (N=8)",12.3%
same,Percentage of 14C Radioactivity Associated with Erythrocytes in Whole Blood (ETR),"[2]; 14.00 h, Median (N=8)",13%
same,Percentage of 14C Radioactivity Associated with Erythrocytes in Whole Blood (ETR),"[2]; 14.00 h, Min (N=8)",6.1%
same,Percentage of 14C Radioactivity Associated with Erythrocytes in Whole Blood (ETR),"[2]; 14.00 h, individual subjects",6.13% and 17.0% and 12.1% and 7.45% and 12.7% and 14.1% and 14.0% and 14.9%
same,Distribution of radioactivity between plasma and red blood cells,[2],present primarily in plasma and not markedly associated with red blood cells
same,AUC0-24,[3],10700 ± 3170 h · ngEq/mL
same,AUC0-72,[3],23800 ± 9340 h · ngEq/mL
same,AUC0-inf,[3],40300 ± 12300 h · ngEq/mL
same,AUC0-t,[3],38100 ± 12800 h · ngEq/mL
same,concentration at 0.5 h,"[3]; po, 175 mg, Plasma concentration, 0.50 h, individual subject, single 175 mg oral [14C]-XL184 (100 μCi), healthy male subjects, radio-quantitative method",283 ng/mL
same,concentration at 5 h,"[3]; po, 175 mg, Plasma concentration, 5.00 h, individual subject, single 175 mg oral [14C]-XL184 (100 μCi), healthy male subjects, radio-quantitative method",512 ng/mL
same,concentration at 336 h,"[3]; po, 175 mg, Plasma concentration, 336.00 h, individual subject, single 175 mg oral [14C]-XL184 (100 μCi), healthy male subjects, radio-quantitative method",10.3 ng/mL
same,concentration at 72 h,"[3]; po, 175 mg, Plasma concentration, individual subject, single 175 mg oral [14C]-XL184 (100 μCi), healthy male subjects, radio-quantitative method",101 ng/mL
same,ke1,[3]; male,0.0112 ± 0.0053 h⁻¹
same,Tmax,"[3]; male, Tmax",~1.99 h
same,concentration at 72 h,"[3]; male, po, 175 mg, Plasma concentration, Mean, N=6, single 175 mg oral [14C]-XL184 (100 μCi), healthy male subjects, radio-quantitative method",159 ng/mL
same,concentration at 72 h,"[3]; male, po, 175 mg, Plasma concentration, Median, N=6, single 175 mg oral [14C]-XL184 (100 μCi), healthy male subjects, radio-quantitative method",162 ng/mL
same,Oral bioavailability,[4],orally bioavailable
same,Inhibition of RET in vivo,[5],dose-dependent inhibition
same,Tumor regression,"[6]; human medullary thyroid cancer, human breast cancer, and rat glioma models",marked tumor regression
same,Tumor growth inhibition,[6]; multiple tumor models,significant tumor growth inhibition
same,Immunohistochemistry findings,[6]; within 24 hours after administration,"rapid effects on the endothelium, vascular breakdown, and tumor cell death"
